Test results published in patent US20180344680A1, “COMPOSITIONS AND METHODS FOR TREATMENT, AMELIORATION, AND PREVENTION OF DIABETES-RELATED SKIN ULCERS” (THE ARIZONA BOARD OF REGENTS ON BEHALF OF THE UNIVERSITY OF …, priority 2015, published 2018).

What was measured:
[1] = Body weight and blood glucose in STZ-induced diabetic mice; format: in vivo, mouse; conditions: diabetic Nrf2+/+ mice; 12.5 mg/kg SF or 50 mg/kg CA intraperitoneally every other day; vs untreated STZ
Description: Diabetes mouse model and treatments. […] Briefly, three weeks after STZ injections, fasting glucose levels (FGL, 4 h fast) were measured using the AlphaTRAK system (Abbott Laboratory, North Chicago, Ill.) and mice with a FGL higher than or equal to 250 mg/dL were considered diabetic and included in the study (see, e.g., FIG. 2A and FIG. 3A for a detailed timeline). The mice (n=5-8) were then allocated randomly to each of the indicated treatment groups and received corn oil (control), 12.5 mg/kg SF or 50 mg/kg CA intraperitoneally every two days until skin tissues were harvested.
After induction of diabetes using STZ, diabetic Nrf2^+/+ mice were intraperitoneally injected with corn oil (vehicle control), 12.5 mg/kg SF, or 50 mg/kg CA every other day for 1 week, then the wound surgery was performed and the treatment continued for 2 more weeks (FIG. 3A).

[2] = system: wounds of STZ-induced diabetic Nrf2+/+ mice; test: Wound closure in STZ-induced diabetic mouse model; format: in vivo; conditions: for wound closure / diameter of granulation tissue between the flanking hair follicles: STZ mice; for wound closure: 12.5 mg/kg SF or 50 mg/kg CA i.p. every other day, up to 14 days after wound surgery, vs untreated STZ; for diameter of granulation tissue between the flanking hair follicles: day 14 post-surgery, histological examination
Description: Diabetes mouse model and treatments. Nrf2^+/+ and Nrf2^-/- C57BL/6 mice were described previously (see, e.g., Jiang T, et al., Diabetes 59:850-860, 2010) and were housed and handled in accordance with the University of Arizona Institutional Animal Care policies. The STZ-induced diabetic model was previously described (see, e.g., Zheng H, et al., Diabetes 60:3055-3066, 2011) and only 8 week old male mice were included in this study. Briefly, three weeks after STZ injections, fasting glucose levels (FGL, 4 h fast) were measured using the AlphaTRAK system (Abbott Laboratory, North Chicago, Ill.) and mice with a FGL higher than or equal to 250 mg/dL were considered diabetic and included in the study (see, e.g., FIG. 2A and FIG. 3A for a detailed timeline). The mice (n=5-8) were then allocated randomly to each of the indicated treatment groups and received corn oil (control), 12.5 mg/kg SF or 50 mg/kg CA intraperitoneally every two days until skin tissues were harvested. One week after the treatments, the mice were anesthetized, their backs were shaved and cleaned. Two wounds were made with a sterile 6 mm skin biopsy punch (Health link, Jacksonville, Fla.) and covered with 3M Tegaderm pads. The wounds were photographed using an in vivo imaging system and an infrared integrated system ([…], Northampton, UK) for 14 days. Gross wound closure was quantified by ImageJ software, and wound healing was expressed as the percentage of the original wound area that had healed. The tissues were collected using an 8 mm skin biopsy punch; one half was fixed in 10% buffered formalin and embedded in paraffin while the other half was used for protein extraction. For the experiments in non-diabetic mice (FIG. 9), mice were injected with sodium citrate buffer and randomly allocated to the treatment groups (n=3-5). Wounds and tissue collection were performed as described above.

TGF-β1 = TGF-β1 expression in wound skin tissues of STZ mice (immunoblot, IHC); format: in vivo, mouse; conditions: immunoblot and IHC, day 14
Description: (§1) Diabetes mouse model and treatments. Nrf2^+/+ and Nrf2^-/- C57BL/6 mice were described previously (see, e.g., Jiang T, et al., Diabetes 59:850-860, 2010) and were housed and handled in accordance with the University of Arizona Institutional Animal Care policies. The STZ-induced diabetic model was previously described (see, e.g., Zheng H, et al., Diabetes 60:3055-3066, 2011) and only 8 week old male mice were included in this study. Briefly, three weeks after STZ injections, fasting glucose levels (FGL, 4 h fast) were measured using the AlphaTRAK system (Abbott Laboratory, North Chicago, Ill.) and mice with a FGL higher than or equal to 250 mg/dL were considered diabetic and included in the study (see, e.g., FIG. 2A and FIG. 3A for a detailed timeline). […] Gross wound closure was quantified by ImageJ software, and wound healing was expressed as the percentage of the original wound area that had healed. […] Morphology was assessed by hematoxylin and eosin (H&E) staining (Vector laboratory, Burlingame, Calif.). […] Protein concentration was measured using Quant-iT Protein Assay (Invitrogen) and 150 μg of protein were resolved by SDS-PAGE and immunoblotting analyses with the indicated antibodies.

MMP9 = MMP9 expression in wound skin tissues of STZ mice (immunoblot, IHC); format: in vivo, mouse; conditions: immunoblot and IHC, day 14
Description: as §1

| SMILES | blood glucose levels [1] | body weight [1] | wound closure [2] | diameter of granulation tissue between the flanking hair follicles [2] | TGF-β1 expression (TGF-β1) | MMP9 protein expression (MMP9) | wound closure compared with non-diabetic Con mice ([2]; STZ+SF mice, during the first 7 days) |
| --- | --- | --- | --- | --- | --- | --- | --- |
| O=CC=Cc1ccccc1 [CA, Cinnamaldehyde] | failed to decrease blood glucose levels | reversed the body weight loss during the initial phase of diabetes | accelerated wound closure | markedly reduced | restored to levels comparable to that of Con mice | restored the protein expression of MMP9 to levels comparable to the Con mice |  |
| C[S@@+]([O-])CCCCN=C=S [SF, L-sulforaphane] | failed to decrease blood glucose levels | reversed the body weight loss during the initial phase of diabetes | accelerated wound closure | markedly reduced | restored to levels comparable to that of Con mice | restored the protein expression of MMP9 to levels comparable to the Con mice | even faster than that of the Con mice |
